In patent US8673964B2, “Use of drug combinations for treating insulin resistance” (DiaMedica Inc., priority 2004, dated 2014):
Several values for one entry are separate records, joined by “and”; a condition that tells them apart may be missing. Equal entries are not always repeated.

Assays:
sucrose fed rats = experiment: Rapid insulin sensitivity test (RIST): meal induced insulin sensitization in control diet and sucrose fed rats; assay type: in vivo, Sprague Dawley rats; conditions: individual animals
Protocol: Animal Groups—Male Sprague Dawley rats having a starting weight of ≧220.0 g (Charles River, St. Constant, Quebec, Canada) were fed a normal rat chow diet and regular tap water, with and without the exposure to a 35% liquid sucrose solution for a 2 week period. Six groups of animals were established under the following treatments: […] (2) control diet, bethanechol (0.5 μg/kg ipv) and N-acetyl-L-cysteine (200 mg/kg) treatment (n=8); (3) control diet, bethanechol (0.5 μg/kg ipv) (n=5); (4) control diet, N-acetyl-L-cysteine (200 mg/kg) (n=4); (5) sucrose diet, saline treatment (n=4); (6) sucrose diet, bethanechol (0.5 μg/kg ipv) and N-acetyl-L-cysteine (200 mg/kg) treatment (n=5); (7) sucrose diet, bethanechol (0.5 μg/kg ipv) (n=6); and (8) sucrose diet, N-acetyl-L-cysteine (200 mg/kg) (n=3). Methodology—All animals are 24 hour fasted. The animals are prepared using the standard RIST surgical preparation. The rats are anaesthetized with an intraperitoneal injection of sodium pentobarbital (65 mg kg-1; Somnotol, MTC Pharmaceuticals, Ont). […] The rats are placed on a temperature-controlled surgical table (Harvard Apparatus, Kent, England) and rectal temperature is monitored and held at 37-37.5° C. Spontaneous respiration is allowed through a tracheal tube. An arterial-venous shunt is established, as previous described (Lautt W W et al. Can J Physiol Pharmacol. 1998; 76 (12): 1080-6), for monitoring mean arterial blood pressure (MAP), blood glucose level and for drug delivery. Briefly, two catheters (polyethylene tubing PE60), one inserted into the right femoral artery and the other into the right femoral vein, are connected to the two openings of a three way vascular circuit consisting of a T tube connected with silicon tubing. The third opening of the circuit is connected to a pressure transducer for the recording of the shunt pressure which, when the silicon tubing toward the venous side of the circuit is closed by clamping, represented the systemic arterial blood pressure. Blood samples are taken from the arterial side of the shunt for the glucose measurement. Flowing blood within the shunt assures the real time measurement of the blood glucose concentration, which is essential for the euglycemic clamp test as mentioned below. An infusion line is inserted into the venous side of the loop for drug delivery. Another infusion line connected to the jugular vein is established for glucose infusion. Animals are heparinized (100 IU·kg-1) to prevent clotting in the vascular loop. […] A control RIST is performed as previously described (Lautt W W et al. Can J Physiol Pharmacol. 1998; 76 (12): 1080-6). […] The baseline glucose levels are then determined by samples taken at 5-min intervals and continued until three successive stable determinations were made. […]

[1] = system: Rats with Insulin Resistance Produced by Hepatic Denervation; experiment: RIST in rats with insulin resistance produced by hepatic denervation; assay type: in vivo

In the case of `CC(C[N+](C)(C)C)OC(N)=O` (stereo not shown) [Bethanechol, bethanechol], the “percent potentation of RIST as compared to control” value (shortened to “percent potentation of RIST”) (sucrose fed rats; Control Diet, bethanechol 0.5 μg/kg ipv alone, listed as BCH) is reported as 9.06% and 15.19% and 35.62% and 33.87% and 60.33%, the “percent potentation of RIST” value (sucrose fed rats; Sucrose Diet, bethanechol 0.5 μg/kg ipv alone, listed as BCH) is reported as 45.59% and 13.22% and −13.22% and 14.22% and 7.71% and 22.36% and the “RIST index after surgical hepatic denervation” value (shortened to “RIST index”) ([1]; bethanechol infusion into the portal vein 2.5 mg/kg/min from 10 minutes prior to insulin, entire test period) is reported as “reversal of the insulin resistance”.

In the case of `CC(=O)N[C@@H](CS)C(=O)O` [NAC, N-acetyl-L-cysteine], the “percent potentation of RIST” value (sucrose fed rats; Control Diet, N-acetyl-L-cysteine 200 mg/kg alone) is reported as 33.5% and 27.39% and 57.25% and 1.89%, the “percent potentation of RIST” value (sucrose fed rats; Sucrose Diet, N-acetyl-L-cysteine 200 mg/kg alone) is reported as 3% and −13.85% and −2.63% and the “RIST index” value ([1]; NAC (200 mg/mL) infusion into the portal vein 0.1 mL/min for 2 minutes) is reported as “reversal of the insulin resistance”.

For `[NH-]c1c[n+](N2CCOCC2)no1` [SIN-1, 3-morpholinosyndnonimine], the “RIST index” value ([1]; SIN-1 infusion into the portal vein 10.0 mg/kg/min for 2 minutes) was “reversal of the insulin resistance”.
